What was measured:
[1] = Plasma concentration following multiple oral dosing in rat; format: in vivo, Sprague-Dawley rats; conditions: for AUC / Cmax / Tmax: mean; for half-life: harmonic mean
Experimental: A study was conducted to explore the ABT-102 plasma concentrations following multiple oral dosing in rat. In this study, a 10, 30 or 100 mg/kg/day oral dose was administered once daily for eight consecutive days. The compound was prepared as a suspension of the spray dried material in water at concentrations appropriate for a 20 ml/kg/day dose volume in each treatment group. The study was conducted in Sprague-Dawley rats (3 male, 3 female per dose group). Animals were permitted free access to food and water throughout the study. Plasma concentrations of parent drug were determined on the first (Day 1) and last (Day 8) of dosing.

in vivo = conditions: rat, po, 100 mg/kg
Experimental: A study was conducted to evaluate effect of aging on the ABT-102 bioavailability obtained from suspensions of the spray dried material. Suspensions were prepared by stirring in water for 15 minutes at room temperature (5 mg/ml concentration). The suspensions were then stored refrigerated until dosing. Suspensions aged for 1, 4 and 7 days were compared to a suspension freshly prepared on the morning of dosing. Each of the aged suspension was evaluated in a group of three rats at a dose of 100 mg/kg (20 ml/kg). All four test formulations were evaluated in the same study. Plasma concentrations of parent drug were determined by HPLC-MS/MS.

[2] = Previously conducted human pharmacokinetics of ABT-102; format: in vivo; conditions: lipid-liquid formulation
Text: However, it is anticipated that the current spray dried formulation of the invention also achieves similar pharmacokinetic profile in humans.

[3] = 10 mg/kg/day oral, Day 1, aqueous suspension of spray-dried dispersion of Example 4 (part B)
[4] = 10 mg/kg/day oral, Day 8, aqueous suspension of spray-dried dispersion of Example 4 (part B)
[5] = 30 mg/kg/day oral, Day 1, aqueous suspension of spray-dried dispersion of Example 4 (part B)
[6] = 30 mg/kg/day oral, Day 8, aqueous suspension of spray-dried dispersion of Example 4 (part B)
[7] = 100 mg/kg/day oral, Day 1, aqueous suspension of spray-dried dispersion of Example 4 (part B)
[8] = 100 mg/kg/day oral, Day 8, aqueous suspension of spray-dried dispersion of Example 4 (part B)
[9] = both sexes, Sprague-Dawley, plasma, po, 10 mg/kg/day, 10 mg/kg/day oral, Day 1, aqueous suspension of spray-dried dispersion of Example 4 (part B)
[10] = both sexes, Sprague-Dawley, plasma, po, 10 mg/kg/day, 10 mg/kg/day oral, Day 8, aqueous suspension of spray-dried dispersion of Example 4 (part B)
[11] = both sexes, Sprague-Dawley, plasma, po, 30 mg/kg/day, 30 mg/kg/day oral, Day 1, aqueous suspension of spray-dried dispersion of Example 4 (part B)
[12] = both sexes, Sprague-Dawley, plasma, po, 30 mg/kg/day, 30 mg/kg/day oral, Day 8, aqueous suspension of spray-dried dispersion of Example 4 (part B)
[13] = both sexes, Sprague-Dawley, plasma, po, 100 mg/kg/day, 100 mg/kg/day oral, Day 1, aqueous suspension of spray-dried dispersion of Example 4 (part B)
[14] = both sexes, Sprague-Dawley, plasma, po, 100 mg/kg/day, 100 mg/kg/day oral, Day 8, aqueous suspension of spray-dried dispersion of Example 4 (part B)

AUC/D [1, 3]: 0.918 μg · hr/mL per mg/kg | Cmax/D [1, 3]: 0.073 μg/mL per mg/kg | AUC ([1]; 10 mg/kg/day oral, Day 1, aqueous suspension of spray-dried dispersion of Example 4 (part B), 10 mg/kg/day): 9180 ng·h/mL | AUC/D [1, 4]: 0.725 μg · hr/mL per mg/kg | Cmax/D [1, 4]: 0.060 μg/mL per mg/kg | AUC ([1]; 10 mg/kg/day oral, Day 8, aqueous suspension of spray-dried dispersion of Example 4 (part B), 10 mg/kg/day): 7250 ng·h/mL | AUC/D [1, 5]: 0.741 μg · hr/mL per mg/kg | Cmax/D [1, 5]: 0.046 μg/mL per mg/kg | AUC ([1]; 30 mg/kg/day oral, Day 1, aqueous suspension of spray-dried dispersion of Example 4 (part B), 30 mg/kg/day): 22220 ng·h/mL | AUC/D [1, 6]: 0.498 μg · hr/mL per mg/kg | Cmax/D [1, 6]: 0.044 μg/mL per mg/kg | AUC ([1]; 30 mg/kg/day oral, Day 8, aqueous suspension of spray-dried dispersion of Example 4 (part B), 30 mg/kg/day): 14950 ng·h/mL | AUC/D [1, 7]: 0.326 μg · hr/mL per mg/kg | Cmax/D [1, 7]: 0.021 μg/mL per mg/kg | AUC ([1]; 100 mg/kg/day oral, Day 1, aqueous suspension of spray-dried dispersion of Example 4 (part B), 100 mg/kg/day): 32610 ng·h/mL | AUC/D [1, 8]: 0.362 μg · hr/mL per mg/kg | Cmax/D [1, 8]: 0.026 μg/mL per mg/kg | AUC ([1]; 100 mg/kg/day oral, Day 8, aqueous suspension of spray-dried dispersion of Example 4 (part B), 100 mg/kg/day): 36180 ng·h/mL | half-life [1, 9]: 5.9 h | Cmax [1, 9]: 730 ng/mL | Tmax [1, 9]: 2.3 h | AUC ([1]; both sexes, Sprague-Dawley, plasma, po, 10 mg/kg/day, 10 mg/kg/day oral, Day 1, aqueous suspension of spray-dried dispersion of Example 4 (part B), read-out: AUC): 9200 ng·h/mL | half-life [1, 10]: 5.4 h | Cmax [1, 10]: 600 ng/mL | Tmax [1, 10]: 3.3 h | AUC ([1]; both sexes, Sprague-Dawley, plasma, po, 10 mg/kg/day, 10 mg/kg/day oral, Day 8, aqueous suspension of spray-dried dispersion of Example 4 (part B), read-out: AUC): 7300 ng·h/mL | half-life [1, 11]: 7.8 h | Cmax [1, 11]: 1390 ng/mL | Tmax [1, 11]: 3 h | AUC ([1]; both sexes, Sprague-Dawley, plasma, po, 30 mg/kg/day, 30 mg/kg/day oral, Day 1, aqueous suspension of spray-dried dispersion of Example 4 (part B), read-out: AUC): 22200 ng·h/mL | half-life [1, 12]: 5.3 h | Cmax [1, 12]: 1320 ng/mL | Tmax [1, 12]: 3.3 h | AUC ([1]; both sexes, Sprague-Dawley, plasma, po, 30 mg/kg/day, 30 mg/kg/day oral, Day 8, aqueous suspension of spray-dried dispersion of Example 4 (part B), read-out: AUC): 15000 ng·h/mL | half-life [1, 13]: 6.3 h | Cmax [1, 13]: 2130 ng/mL | Tmax [1, 13]: 5 h | AUC ([1]; both sexes, Sprague-Dawley, plasma, po, 100 mg/kg/day, 100 mg/kg/day oral, Day 1, aqueous suspension of spray-dried dispersion of Example 4 (part B), read-out: AUC): 32600 ng·h/mL | half-life [1, 14]: 5.6 h | Cmax [1, 14]: 2610 ng/mL | Tmax [1, 14]: 4.5 h | AUC ([1]; both sexes, Sprague-Dawley, plasma, po, 100 mg/kg/day, 100 mg/kg/day oral, Day 8, aqueous suspension of spray-dried dispersion of Example 4 (part B), read-out: AUC): 36200 ng·h/mL | AUC (in vivo; AUC): 12400 ng·h/mL | Cmax (in vivo; Cmax): 1160 ng/mL | Tmax (in vivo; Tmax): 4.3 h | half-life (in vivo; t1/2): 4.4 h | pharmacokinetics (Cmax and AUC) versus dose [2]: dose proportional exposures
Compound: CC(C)(C)c1ccc2c(c1)CCC2NC(=O)Nc1cccc2[nH]ncc12 (stereo in doubt) [ABT-102, 1-((R)-5-tert-butyl-indan-1-yl)-3-(1H-indazol-4-yl)-urea]

Reference: US20090143423A1, “SOLID DISPERSION PRODUCT CONTAINING N-ARYL UREA-BASED COMPOUND” (ABBOTT GMBH & CO. KG, priority 2007, published 2009)
